Assay results published in patent US11066447B2, “Aureobasidium derivatives and methods of synthesis” (AureoGen Biosciences, Inc., priority 2016, dated 2021).
Converted amounts (≈) assume the structure as drawn. Like-named read-outs stand apart in the source and are kept apart here. Values belong to the compound of their own block, whether it stands above or below them. Numbered stars: 1 amine (or outer) side, 2 acyl side, 3 side chain; on linkers, the order of the positions; unused ones are H or OH. Square brackets hold non-standard residues; d marks the D form. Peptide text beside a SMILES is read from it. X1 = CC(C)N1CCN(c2ccc(-c3cccc(C[C@@H](C(=O)[*:2])N(C)[*:1])c3)cc2)CC1; Hmp(2R,3S) = CC[C@H](C)[C@@H](O)C(=O)O; NMeVal(β-OH) = CN[C@H](C(=O)O)C(C)(C)O; NMeV = CN[C@H](C(=O)O)C(C)C

How the values were obtained:
[1] = tested on: C. parapsilosis MMX 2323 ATCC 22019; settings: Without Tween-80; quality control range; cited from earlier work
[2] = tested on: A. fumigatus MMX 5280 ATCC MYA-3626; test: MIC/MEC assay (CLSI microdilution); type: cell-based, Aspergillus fumigatus
Outline: (§1)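 Aspergillus spore suspensions, diluted from counted stocks to a final approximately 0.2-2.5×10^4 CFU/mL, were inoculated into RPMI-1640 containing 0.002% Tween-80 holding two-fold drug dilutions. Compounds came from 95% ethanol, amphotericin B (0.06-64 μg/mL) from DMSO. MMX 5280 was also tested without Tween-80.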

[3] = tested on: C. albicans MMX 2000 ATCC 10231; test: MIC assay (CLSI microdilution); type: cell-based; settings: Candida albicans, ATCC10231, RPMI plus 0.002% Tween-80; read-out: MIC
[4] = tested on: C. neoformans MMX 0634 ATCC 90112; test: MIC assay (CLSI microdilution); type: cell-based
[5] = tested on: A. fumigatus MMX 5280 ATCC MYA-3626; settings: Without Tween-80, quality control range, cited from earlier work
[6] = tested on: C. albicans MMX 2000 ATCC 10231; test: MIC assay (CLSI microdilution); type: cell-based; settings: Candida albicans, ATCC10231, Without Tween-80; read-out: MIC
[7] = tested on: C. parapsilosis MMX 2323 ATCC 22019; test: MIC assay (CLSI microdilution); type: cell-based, Candida parapsilosis; settings: read-out: MIC
Outline: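 Broth microdilution MIC testing of Candida parapsilosis ATCC 22019 followed CLSI methods in RPMI-1640, with or without 0.002% Tween-80. Yeast grown 48 hours at 35° C on Sabouraud dextrose agar was suspended to a 0.5 McFarland standard and diluted 1:100 to roughly 0.5-2.5×10^3 CFU/mL. The MIC was the lowest concentration preventing visible growth.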

A. flavus MMX 5948 = test: MIC/MEC assay (CLSI microdilution); type: cell-based; settings: Aspergillus flavus, MMX5948, 48 h, RPMI plus 0.002% Tween-80
Outline: as §1

[8] = tested on: A. fumigatus MMX 6781 ATCC MYA-4609; test: MIC/MEC assay (CLSI microdilution); type: cell-based; settings: Aspergillus fumigatus
Outline: as §1

[9] = tested on: A. fumigatus from Aureogen; test: MIC/MEC assay (CLSI microdilution); type: cell-based
Outline: as §1

[10] = tested on: A. niger MMX 0624 ATCC 16888; test: MIC/MEC assay (CLSI microdilution); type: cell-based
Outline: as §1

[11] = tested on: A. fumigatus MMX 6782 ATCC 13073; test: MIC/MEC assay (CLSI microdilution); type: cell-based
Outline: as §1

A. fumigatus MMX 5944 = test: MIC/MEC assay (CLSI microdilution); type: cell-based
Outline: as §1

Coccidiodes immitus = test: organism not typed; type: cell-based
[12] = Cryptococcus neoformans, ATCC90112, 72 h, 72 hour, RPMI plus 0.002% Tween-80, read-out: MIC
[13] = Cryptococcus neoformans, ATCC90112, RPMI plus 0.002% Tween-80, read-out: MIC
[14] = Aspergillus fumigatus, 48 h, RPMI plus 0.002% Tween-80, read-out: MIC
[15] = RPMI plus 0.002% Tween-80, 48 hr

MIC ([2]; Without Tween-80, 48 hr): 0.5 µg/mL (≈ 0.541 µM)
MIC [3]: ≤ 0.06 µg/mL
MIC [4, 12]: ≤ 0.06 µg/mL
MIC [4, 13]: ≤ 0.06 µg/mL
MIC [6]: ≤ 0.06 µg/mL
Compound: C[C@@H]1[C@H](O)[C@@H](C)/C=C/C=C/C=C/C=C/C=C/C=C/C=C/[C@H](O[C@@H]2O[C@H](C)[C@@H](O)[C@H](N)[C@@H]2O)C[C@@H]2O[C@](O)(C[C@@H](O)C[C@@H](O)[C@H](O)CC[C@@H](O)C[C@@H](O)CC(=O)O[C@H]1C)C[C@H](O)[C@H]2C(=O)O [Amphotericin B, reference compound]
CLSI QC Range (MIC) [1]: (0.25-1)^1 μg/mL
CLSI QC Range (MIC) [5]: 0.5 to 4 µg/mL
CLSI QC Range (MIC) ([5]; listed as Amph. B): (0.5-4)^1 μg/mL

Compound: CC[C@H](C)[C@@H]1NC(=O)[C@@H]2CCCN2C(=O)[C@H](Cc2cccc(-c3ccc(N4CCN(C(C)C)CC4)cc3)c2)N(C)C(=O)[C@H](Cc2ccccc2)NC(=O)[C@H](C(C)C)N(C)C(=O)[C@@H]([C@@H](C)CC)OC(=O)[C@H](C(C)(C)O)N(C)C(=O)[C@H](CC(C)C)NC(=O)[C@H](C(C)C)N(C)C1=O [Compound 25] (cyclo(F[X1]PI[NMeV]L[NMeVal(β-OH)][Hmp(2R,3S)][NMeV]))
MIC ([7]; ATCC22019, RPMI plus 0.002% Tween-80): 0.03 µg/mL
MIC ([7]; ATCC22019, Without Tween-80): 1 µg/mL (≈ 0.767 µM)
minimal effective concentration ([2]; Aspergillus fumigatus, 48 h, RPMI plus 0.002% Tween-80, read-out: MEC): 0.03 µg/mL
MIC [2, 14]: 0.12 µg/mL
minimal effective concentration ([2]; Aspergillus fumigatus, 48 h, Without Tween-80, read-out: MEC): 0.5 µg/mL
MIC ([2]; Aspergillus fumigatus, 48 h, Without Tween-80, read-out: MIC): 1 µg/mL (≈ 0.767 µM)
MEC ([2]; Without Tween-80, 48 hr): 1/1 μg/mL
MIC ([2]; Without Tween-80, 48 hr): 1 µg/mL (≈ 0.767 µM)
MIC [3]: 0.015 µg/mL
MIC ([4]; 72 hour, RPMI plus 0.002% Tween-80): 0.06 µg/mL
MIC [4, 12]: 0.06 µg/mL
MIC [4, 13]: 0.015 µg/mL
MIC [6]: 1 µg/mL (≈ 0.767 µM)
minimal effective concentration (A. flavus MMX 5948): 0.008 µg/mL
MIC ([8]; 48 h, RPMI plus 0.002% Tween-80, read-out: MIC): 0.12 µg/mL
minimal effective concentration [8, 15]: 0.03 µg/mL
minimal effective concentration ([9]; Aspergillus fumigatus, 48 h, RPMI plus 0.002% Tween-80): 0.06 µg/mL
MIC [9, 14]: 0.12 µg/mL
MEC [9, 15]: 0.06 µg/mL
minimal effective concentration ([10]; Aspergillus niger, ATCC16888, 48 h, RPMI plus 0.002% Tween-80, read-out: MEC): 0.015 µg/mL
MIC ([10]; Aspergillus niger, ATCC16888, 48 h, RPMI plus 0.002% Tween-80, read-out: MIC): 0.015 µg/mL
MIC [10, 15]: 0.015 µg/mL
minimal effective concentration ([11]; Aspergillus fumigatus, ATCC13073, 48 h, RPMI plus 0.002% Tween-80, read-out: MEC): 0.015 µg/mL
MIC ([11]; Aspergillus fumigatus, ATCC13073, 48 h, RPMI plus 0.002% Tween-80, read-out: MIC): 0.06 µg/mL
MIC [11, 15]: 0.06 µg/mL
minimal effective concentration (A. fumigatus MMX 5944; Aspergillus fumigatus, MMX5944, 48 h, RPMI plus 0.002% Tween-80): 0.015 µg/mL
MIC (A. fumigatus MMX 5944; Aspergillus fumigatus, MMX5944, 48 h, RPMI plus 0.002% Tween-80, read-out: MIC): 0.06 µg/mL
MIC (A. fumigatus MMX 5944; [15]): 0.06 µg/mL
MIC (Coccidiodes immitus): 0.15 µg/mL (≈ 0.115 µM)
